The kinase profiling compilation of Christmann-Franck et al. (2016)
Each block holds one compound with its values, some of them ahead of it.

Experiments:
Assay in all cases: radiometric filter-binding kinase assay
ABL1 (human) = ABL1 (human) (UniProt P00519)
CHEK2 (human) = CHEK2 (human) (UniProt O96017)
MARK3 (human) = MARK3 (human) (UniProt P27448)
PRKCG (human) = PRKCG (human) (UniProt P05129)
PTK6 (human) = PTK6 (human) (UniProt Q13882)
STK16 (human) = STK16 (human) (UniProt O75716)
STK33 (human) = STK33 (human) (UniProt Q9BYT3)
Chain of STK33 (human) (Q9BYT3 whole entry, looked up): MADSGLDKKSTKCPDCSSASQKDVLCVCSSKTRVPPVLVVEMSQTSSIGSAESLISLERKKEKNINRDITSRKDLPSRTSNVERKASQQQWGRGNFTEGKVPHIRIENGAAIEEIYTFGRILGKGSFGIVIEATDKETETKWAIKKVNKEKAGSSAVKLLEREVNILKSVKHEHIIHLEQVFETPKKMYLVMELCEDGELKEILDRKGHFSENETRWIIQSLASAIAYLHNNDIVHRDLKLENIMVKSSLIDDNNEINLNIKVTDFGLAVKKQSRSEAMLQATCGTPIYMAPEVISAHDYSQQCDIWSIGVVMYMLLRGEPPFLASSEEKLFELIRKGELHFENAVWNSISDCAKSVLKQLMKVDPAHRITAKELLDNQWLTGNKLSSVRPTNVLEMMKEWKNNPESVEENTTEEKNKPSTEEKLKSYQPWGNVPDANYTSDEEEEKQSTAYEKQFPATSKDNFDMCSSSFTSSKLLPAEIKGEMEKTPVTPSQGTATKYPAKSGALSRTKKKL

TEK (human) = TEK (human) (UniProt Q02763)
Chain of TEK (human) (Q02763 whole entry, looked up): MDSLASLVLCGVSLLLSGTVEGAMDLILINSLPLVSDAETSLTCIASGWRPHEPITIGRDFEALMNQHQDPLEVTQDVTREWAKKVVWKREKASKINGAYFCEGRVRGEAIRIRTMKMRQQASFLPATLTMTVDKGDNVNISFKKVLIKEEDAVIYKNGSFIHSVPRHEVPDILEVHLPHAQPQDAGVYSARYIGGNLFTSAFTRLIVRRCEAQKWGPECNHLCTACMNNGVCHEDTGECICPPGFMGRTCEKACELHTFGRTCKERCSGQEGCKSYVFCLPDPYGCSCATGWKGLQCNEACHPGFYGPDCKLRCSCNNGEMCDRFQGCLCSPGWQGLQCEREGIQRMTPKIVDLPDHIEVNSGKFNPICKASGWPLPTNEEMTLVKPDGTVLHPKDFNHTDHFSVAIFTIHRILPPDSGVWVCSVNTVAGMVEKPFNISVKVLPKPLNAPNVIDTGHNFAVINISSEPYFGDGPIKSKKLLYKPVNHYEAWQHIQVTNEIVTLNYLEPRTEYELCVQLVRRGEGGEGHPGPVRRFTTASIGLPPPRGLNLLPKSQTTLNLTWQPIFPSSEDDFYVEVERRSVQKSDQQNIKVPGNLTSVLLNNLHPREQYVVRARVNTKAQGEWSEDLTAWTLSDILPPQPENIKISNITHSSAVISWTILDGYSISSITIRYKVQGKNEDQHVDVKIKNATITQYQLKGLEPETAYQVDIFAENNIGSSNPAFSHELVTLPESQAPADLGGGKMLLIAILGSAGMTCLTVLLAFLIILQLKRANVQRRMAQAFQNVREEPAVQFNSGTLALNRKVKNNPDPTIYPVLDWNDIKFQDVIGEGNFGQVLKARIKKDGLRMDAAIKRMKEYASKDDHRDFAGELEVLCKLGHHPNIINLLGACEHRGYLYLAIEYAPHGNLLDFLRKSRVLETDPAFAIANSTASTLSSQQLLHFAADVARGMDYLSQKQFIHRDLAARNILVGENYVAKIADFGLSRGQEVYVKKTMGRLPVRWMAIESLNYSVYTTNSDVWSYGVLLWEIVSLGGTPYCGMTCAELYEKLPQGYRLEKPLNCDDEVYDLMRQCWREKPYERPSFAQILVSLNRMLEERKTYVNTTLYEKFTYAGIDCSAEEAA

ZAP70 (human) = ZAP70 (human) (UniProt P43403)
Chain of ZAP70 (human) (P43403 whole entry, looked up): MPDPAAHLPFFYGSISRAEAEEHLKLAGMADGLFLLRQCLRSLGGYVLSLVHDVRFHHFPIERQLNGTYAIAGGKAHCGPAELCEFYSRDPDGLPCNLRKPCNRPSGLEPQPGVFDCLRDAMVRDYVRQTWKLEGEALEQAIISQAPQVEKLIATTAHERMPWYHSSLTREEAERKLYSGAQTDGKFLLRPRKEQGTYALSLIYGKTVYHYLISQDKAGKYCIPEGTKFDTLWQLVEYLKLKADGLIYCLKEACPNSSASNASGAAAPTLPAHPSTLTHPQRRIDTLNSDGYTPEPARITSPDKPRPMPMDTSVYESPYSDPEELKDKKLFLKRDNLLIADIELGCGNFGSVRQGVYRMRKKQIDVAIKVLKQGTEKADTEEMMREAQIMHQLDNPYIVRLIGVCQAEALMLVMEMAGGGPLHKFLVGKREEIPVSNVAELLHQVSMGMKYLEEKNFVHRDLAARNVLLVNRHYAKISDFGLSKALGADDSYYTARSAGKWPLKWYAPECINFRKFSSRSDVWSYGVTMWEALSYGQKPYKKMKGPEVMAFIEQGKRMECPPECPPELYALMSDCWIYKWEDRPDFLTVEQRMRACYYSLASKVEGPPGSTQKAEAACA

Chain of STK16 (human) (O75716 whole entry, looked up): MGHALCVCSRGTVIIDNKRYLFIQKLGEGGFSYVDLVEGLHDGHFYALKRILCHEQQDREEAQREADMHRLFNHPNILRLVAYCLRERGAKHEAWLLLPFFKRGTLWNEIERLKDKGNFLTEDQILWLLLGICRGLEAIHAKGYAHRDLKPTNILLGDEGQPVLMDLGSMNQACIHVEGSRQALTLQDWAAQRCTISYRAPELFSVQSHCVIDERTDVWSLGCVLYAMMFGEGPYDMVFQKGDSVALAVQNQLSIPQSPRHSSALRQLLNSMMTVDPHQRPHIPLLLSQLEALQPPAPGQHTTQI
Chain of MARK3 (human) (P27448 whole entry, looked up): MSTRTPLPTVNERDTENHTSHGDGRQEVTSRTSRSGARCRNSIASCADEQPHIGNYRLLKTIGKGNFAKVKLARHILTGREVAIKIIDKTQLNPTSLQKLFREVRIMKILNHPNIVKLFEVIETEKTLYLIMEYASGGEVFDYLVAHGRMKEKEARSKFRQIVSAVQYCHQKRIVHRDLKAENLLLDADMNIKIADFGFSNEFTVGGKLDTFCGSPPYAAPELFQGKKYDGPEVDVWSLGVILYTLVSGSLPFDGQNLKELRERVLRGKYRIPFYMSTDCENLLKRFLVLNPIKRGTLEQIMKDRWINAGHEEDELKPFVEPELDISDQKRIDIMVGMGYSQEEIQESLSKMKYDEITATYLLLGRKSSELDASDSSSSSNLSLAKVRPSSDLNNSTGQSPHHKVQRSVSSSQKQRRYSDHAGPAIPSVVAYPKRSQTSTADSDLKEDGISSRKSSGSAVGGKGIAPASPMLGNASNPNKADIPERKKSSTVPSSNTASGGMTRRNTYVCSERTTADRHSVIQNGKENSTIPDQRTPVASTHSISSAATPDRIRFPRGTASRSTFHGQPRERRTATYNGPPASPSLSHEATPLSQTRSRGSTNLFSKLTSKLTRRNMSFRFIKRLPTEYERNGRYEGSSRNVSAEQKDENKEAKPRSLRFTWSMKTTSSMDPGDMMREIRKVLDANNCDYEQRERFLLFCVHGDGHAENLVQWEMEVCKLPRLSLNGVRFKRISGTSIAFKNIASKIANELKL
Chain of PTK6 (human) (Q13882 whole entry, looked up): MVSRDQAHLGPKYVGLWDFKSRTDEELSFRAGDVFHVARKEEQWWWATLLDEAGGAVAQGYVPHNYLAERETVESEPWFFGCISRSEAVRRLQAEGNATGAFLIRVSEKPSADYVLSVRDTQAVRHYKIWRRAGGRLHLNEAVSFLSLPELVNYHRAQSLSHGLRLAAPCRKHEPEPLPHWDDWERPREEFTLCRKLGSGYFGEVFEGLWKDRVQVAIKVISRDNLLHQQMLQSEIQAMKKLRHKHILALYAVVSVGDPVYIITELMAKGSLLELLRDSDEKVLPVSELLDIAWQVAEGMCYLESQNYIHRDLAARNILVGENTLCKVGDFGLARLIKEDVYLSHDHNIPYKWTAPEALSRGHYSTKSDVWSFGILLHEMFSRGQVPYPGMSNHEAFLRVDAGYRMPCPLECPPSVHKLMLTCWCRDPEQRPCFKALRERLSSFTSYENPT
Chain of CHEK2 (human) (O96017 whole entry, looked up): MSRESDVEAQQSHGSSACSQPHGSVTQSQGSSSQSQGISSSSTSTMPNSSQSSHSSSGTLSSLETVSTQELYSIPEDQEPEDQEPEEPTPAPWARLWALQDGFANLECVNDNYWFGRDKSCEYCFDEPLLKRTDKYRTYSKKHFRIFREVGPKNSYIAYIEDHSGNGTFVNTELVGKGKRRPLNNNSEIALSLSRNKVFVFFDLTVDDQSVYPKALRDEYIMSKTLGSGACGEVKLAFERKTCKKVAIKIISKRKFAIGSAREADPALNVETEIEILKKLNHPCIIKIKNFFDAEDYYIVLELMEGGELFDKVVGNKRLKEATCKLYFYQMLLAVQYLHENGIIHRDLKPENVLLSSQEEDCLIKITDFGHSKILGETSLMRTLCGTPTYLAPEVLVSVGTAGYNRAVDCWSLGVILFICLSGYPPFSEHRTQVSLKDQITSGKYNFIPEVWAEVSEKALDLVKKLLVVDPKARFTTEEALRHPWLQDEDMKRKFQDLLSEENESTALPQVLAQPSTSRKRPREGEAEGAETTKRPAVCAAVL

Compound: O=C(O)c1cc(N=Nc2ccc(S(=O)(=O)Nc3ccccn3)cc2)ccc1O
residual activity (CHEK2 (human); compound 1.0 µM): 108% | residual activity (CHEK2 (human); compound 10.0 µM): 103% | residual activity (MARK3 (human); compound 1.0 µM): 117% | residual activity (MARK3 (human); compound 10.0 µM): 109%

Compound: O=C(Nc1ccccc1-c1cn2c(CN3CCNCC3)csc2n1)c1cnc2ccccc2n1
residual activity (CHEK2 (human); compound 0.1 µM): 85% | residual activity (CHEK2 (human); compound 1.0 µM): 93% | residual activity (CHEK2 (human); compound 10.0 µM): 54% | residual activity (MARK3 (human); compound 0.1 µM): 100% | residual activity (MARK3 (human); compound 1.0 µM): 108% | residual activity (MARK3 (human); compound 10.0 µM): 99%

Compound: O=C1NC(=S)N[C@@H]1Cc1c[nH]c2ccccc12
residual activity (CHEK2 (human); compound 1.0 µM): 82% | residual activity (CHEK2 (human); compound 10.0 µM): 94% | residual activity (MARK3 (human); compound 1.0 µM): 92% | residual activity (MARK3 (human); compound 10.0 µM): 85%

Compound: Cc1ccc2c(c1)C(=O)[C@@]1(O)CCN(c3ccccc3)C1=N2
residual activity (CHEK2 (human); compound 10.0 µM): 100% | residual activity (MARK3 (human); compound 10.0 µM): 91%

Compound: Cn1c(=O)c2c(ncn2C)n(C)c1=O
residual activity (CHEK2 (human); compound 0.1 µM): 86% | residual activity (CHEK2 (human); compound 1.0 µM): 83% | residual activity (MARK3 (human); compound 0.1 µM): 79% | residual activity (MARK3 (human); compound 1.0 µM): 79%

Compound: COc1cc2ncn(-c3cc(OCc4ccccc4S(C)(=O)=O)c(C#N)s3)c2cc1OC
residual activity (CHEK2 (human); compound 1.0 µM): 19% | residual activity (CHEK2 (human); compound 10.0 µM): 19% | residual activity (MARK3 (human); compound 1.0 µM): 31% | residual activity (MARK3 (human); compound 10.0 µM): 41%

Compound: N#Cc1c(C2CCNCC2)cc(-c2c(O)cccc2OCC2CC2)nc1N
residual activity (CHEK2 (human); compound 1.0 µM): 60% | residual activity (CHEK2 (human); compound 10.0 µM): 34% | residual activity (MARK3 (human); compound 1.0 µM): 118% | residual activity (MARK3 (human); compound 10.0 µM): 82%

Compound: CC(C)C[C@H](NC(=O)CNC(=O)c1cc(Cl)ccc1Cl)B1OC(=O)CC(CC(=O)O)(C(=O)O)O1 (stereo partly drawn)
residual activity (ABL1 (human); compound 10.0 µM): 101% | residual activity (CHEK2 (human); compound 10.0 µM): 89% | residual activity (MARK3 (human); compound 10.0 µM): 72% | residual activity (PRKCG (human); compound 10.0 µM): 114% | residual activity (PTK6 (human); compound 10.0 µM): 96% | residual activity (STK16 (human); compound 10.0 µM): 102% | residual activity (STK33 (human); compound 10.0 µM): 98% | residual activity (TEK (human); compound 10.0 µM): 98% | residual activity (ZAP70 (human); compound 10.0 µM): 84%

Compound: Cc1cccc(-c2nn(C(=S)Nc3ccccc3)cc2-c2ccnc3ccccc23)n1
residual activity (CHEK2 (human); compound 0.1 µM): 115% | residual activity (CHEK2 (human); compound 1.0 µM): 110% | residual activity (MARK3 (human); compound 0.1 µM): 101% | residual activity (MARK3 (human); compound 1.0 µM): 98%

Compound: CN1C(=O)[C@@H](Cc2c[nH]c3ccccc23)NC1=S
residual activity (CHEK2 (human); compound 1.0 µM): 92% | residual activity (CHEK2 (human); compound 10.0 µM): 86% | residual activity (MARK3 (human); compound 1.0 µM): 94% | residual activity (MARK3 (human); compound 10.0 µM): 98%

Compound: O=C1Nc2nc(-c3c(O)cccc3OCC3CC3)cc(C3CCCNC3)c2CO1 (stereo not drawn)
residual activity (CHEK2 (human); compound 1.0 µM): 77% | residual activity (CHEK2 (human); compound 10.0 µM): 46% | residual activity (MARK3 (human); compound 1.0 µM): 100% | residual activity (MARK3 (human); compound 10.0 µM): 94%

Compound: NC(=O)c1c(NC(=O)C2CC2)sc2c1CCCC2
residual activity (ABL1 (human); compound 1.0 µM): 93% | residual activity (ABL1 (human); compound 10.0 µM): 82% | residual activity (CHEK2 (human); compound 1.0 µM): 74% | residual activity (CHEK2 (human); compound 10.0 µM): 35% | residual activity (MARK3 (human); compound 1.0 µM): 90% | residual activity (MARK3 (human); compound 10.0 µM): 69% | residual activity (PRKCG (human); compound 1.0 µM): 98% | residual activity (PRKCG (human); compound 10.0 µM): 110% | residual activity (PTK6 (human); compound 1.0 µM): 114% | residual activity (PTK6 (human); compound 10.0 µM): 95% | residual activity (STK16 (human); compound 1.0 µM): 107% | residual activity (STK16 (human); compound 10.0 µM): 92% | residual activity (STK33 (human); compound 1.0 µM): 87% | residual activity (STK33 (human); compound 10.0 µM): 74% | residual activity (TEK (human); compound 10.0 µM): 75% | residual activity (ZAP70 (human); compound 1.0 µM): 94% | residual activity (ZAP70 (human); compound 10.0 µM): 80%

Continued, values first:

residual activity (ABL1 (human); compound 0.1 µM): 43% | residual activity (ABL1 (human); compound 1.0 µM): 6% | residual activity (ABL1 (human); compound 10.0 µM): 4% | residual activity (CHEK2 (human); compound 0.1 µM): 99% | residual activity (CHEK2 (human); compound 1.0 µM): 103% | residual activity (CHEK2 (human); compound 10.0 µM): 59% | residual activity (MARK3 (human); compound 0.1 µM): 78% | residual activity (MARK3 (human); compound 1.0 µM): 34% | residual activity (MARK3 (human); compound 10.0 µM): 11% | residual activity (PRKCG (human); compound 0.1 µM): 99% | residual activity (PRKCG (human); compound 1.0 µM): 97% | residual activity (PRKCG (human); compound 10.0 µM): 92% | residual activity (PTK6 (human); compound 0.1 µM): 78% | residual activity (PTK6 (human); compound 1.0 µM): 21% | residual activity (PTK6 (human); compound 10.0 µM): 5% | residual activity (STK16 (human); compound 0.1 µM): 97% | residual activity (STK16 (human); compound 1.0 µM): 98% | residual activity (STK16 (human); compound 10.0 µM): 84% | residual activity (STK33 (human); compound 0.1 µM): 81% | residual activity (STK33 (human); compound 1.0 µM): 44% | residual activity (STK33 (human); compound 10.0 µM): 11% | residual activity (TEK (human); compound 0.1 µM): 102% | residual activity (TEK (human); compound 1.0 µM): 86% | residual activity (TEK (human); compound 10.0 µM): 30% | residual activity (ZAP70 (human); compound 0.1 µM): 86% | residual activity (ZAP70 (human); compound 1.0 µM): 69% | residual activity (ZAP70 (human); compound 10.0 µM): 101%
Compound: c1ccc2c(-c3cnn4cc(-c5ccc(N6CCNCC6)cc5)cnc34)ccnc2c1

residual activity (CHEK2 (human); compound 0.1 µM): 101% | residual activity (CHEK2 (human); compound 1.0 µM): 73% | residual activity (CHEK2 (human); compound 10.0 µM): 72% | residual activity (MARK3 (human); compound 0.1 µM): 94% | residual activity (MARK3 (human); compound 1.0 µM): 83% | residual activity (MARK3 (human); compound 10.0 µM): 82%
Compound: CCc1cncnc1N1CCN(Cc2nc3cc(C(F)(F)F)ccc3[nH]2)CC1

residual activity (CHEK2 (human); compound 1.0 µM): 97% | residual activity (CHEK2 (human); compound 10.0 µM): 59% | residual activity (MARK3 (human); compound 1.0 µM): 94% | residual activity (MARK3 (human); compound 10.0 µM): 71%
Compound: NC(=O)c1ccc(-c2ccc(Oc3cncc4sc(-c5nn[nH]n5)cc34)cc2)cc1

residual activity (CHEK2 (human); compound 1.0 µM): 102% | residual activity (CHEK2 (human); compound 10.0 µM): 37% | residual activity (MARK3 (human); compound 1.0 µM): 100% | residual activity (MARK3 (human); compound 10.0 µM): 51%
Compound: FC(F)(F)c1ccc(-c2ccc(Oc3cncc4sc(-c5nn[nH]n5)cc34)cc2)cc1

residual activity (CHEK2 (human); compound 0.1 µM): 122% | residual activity (CHEK2 (human); compound 1.0 µM): 81% | residual activity (CHEK2 (human); compound 10.0 µM): 39% | residual activity (MARK3 (human); compound 0.1 µM): 85% | residual activity (MARK3 (human); compound 1.0 µM): 99% | residual activity (MARK3 (human); compound 10.0 µM): 91%
Compound: NC1(c2ccc(-c3nc4ccn5c(=O)[nH]nc5c4cc3-c3ccccc3)cc2)CCC1
